≈ marks a conversion by molar mass, not a printed value. Each block holds one compound with its values, some of them ahead of it. Calls of active or inactive are those of the source. No cut-off for these calls is given here.
How the values were obtained:
[1] = AUC in rat at 1 mg/kg, po; format: ADME, organism-based; parameters: dose 1 mg/kg, route oral; details: plasma
[2] = Solubility in 0.1 M phosphate buffer at pH 7.4
Cytochrome P450 3A4 = Cytochrome P450 3A4 (Homo sapiens, UniProt P08684); assay: Inhibition of human CYP3A4
[3] = AUC in rat at 10 mg/kg, po; format: ADME, organism-based; parameters: dose 10 mg/kg, route oral; details: plasma
[4] = Oral bioavailability in rat; format: ADME, organism-based; details: in vivo
[5] = Plasma clearance in rat; format: ADME, organism-based
Rattus norvegicus = assay: Inhibition of LH production in castrated AP Wistar Han rat model at 75 mg/kg, po after 12 hrs by radioimmunoassay; format: functional, organism-based; parameters: dose 75 mg/kg

Chain of Cytochrome P450 3A4 (P08684 whole entry): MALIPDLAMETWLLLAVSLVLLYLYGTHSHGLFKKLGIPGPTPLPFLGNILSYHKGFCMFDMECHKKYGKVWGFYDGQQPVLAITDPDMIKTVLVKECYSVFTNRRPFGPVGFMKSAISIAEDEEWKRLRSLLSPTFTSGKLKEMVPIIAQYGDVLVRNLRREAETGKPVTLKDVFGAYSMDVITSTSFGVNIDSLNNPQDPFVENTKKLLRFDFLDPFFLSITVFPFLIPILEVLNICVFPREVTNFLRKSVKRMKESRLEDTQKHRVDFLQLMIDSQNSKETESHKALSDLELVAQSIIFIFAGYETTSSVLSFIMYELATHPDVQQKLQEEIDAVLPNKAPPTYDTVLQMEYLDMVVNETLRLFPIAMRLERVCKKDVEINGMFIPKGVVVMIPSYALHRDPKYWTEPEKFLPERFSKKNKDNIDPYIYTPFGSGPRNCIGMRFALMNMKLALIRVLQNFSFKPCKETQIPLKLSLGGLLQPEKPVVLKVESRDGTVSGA

SMILES: Cc1cc(C)cc(-c2[nH]c3sc(C(C)(C)C(=O)N4C5CCC4CC5)cc3c2C(=O)CN2CCC(C(=O)N3CCOCC3)CC2)c1
- AUC [1]: 0.36 µM·h

SMILES: Cc1cc(C)cc(-c2[nH]c3sc(C(C)(C)C(=O)N4C5CCC4CC5)cc3c2[C@H](C)CN/C(=N/C(=O)OC(C)C)N2CCC(c3ccncc3)CC2)c1
- solubility [2]: 1.4 µM (≈ 1.01 µg/mL)

SMILES: Cc1cc(C)cc(-c2[nH]c3sc(C(C)(C)C(=O)N4C5CCC4CC5)cc3c2[C@H](C)CNC(=NC(=O)OC(C)C)N2CCC(c3ccncc3)C2)c1 (stereo partly drawn)
- solubility [2]: 0.8 µM (≈ 0.567 µg/mL)

SMILES: Cc1cc(C)cc(-c2[nH]c3sc(C(C)(C)C(=O)N4C5CCC4CC5)cc3c2[C@H](C)CNC(=O)N2CCC(c3ccncc3)CC2)c1
- solubility [2]: 0.6 µM (≈ 0.383 µg/mL)

SMILES: COC(=O)/N=C(/NC[C@@H](C)c1c(-c2cc(C)cc(C)c2)[nH]c2sc(C(C)(C)C(=O)N3C4CCC3CC4)cc12)N1CCC(c2ccncc2)C1 (stereo partly drawn)
- solubility [2]: 4.6 µM (≈ 3.13 µg/mL)

SMILES: COC1CCN(C(=O)C2CCN(CCc3c(-c4cc(C)cc(C)c4)[nH]c4sc(C(C)(C)C(=O)N5C6CCC5CC6)cc34)CC2)CC1
- AUC [3]: 358 µM·h
- bioavailability [4]: 35%
- clearance [5]: 0.1 mL/min/kg

SMILES: CCN(CC)CCOC1CCN(CCc2c(-c3cc(C)cc(C)c3)[nH]c3sc(C(C)(C)C(=O)N4C5CCC4CC5)cc23)CC1
- AUC [1]: 0.002 µM·h

SMILES: Cc1cc(C)cc(-c2[nH]c3sc(C(C)(C)C(=O)N4C5CCC4CC5)cc3c2CCN2CCC(C(=O)N3CCCC(O)C3)CC2)c1 (stereo not drawn)
- AUC [3]: 39.3 µM·h
- clearance [5]: 1.3 mL/min/kg

SMILES: Cc1cc(C)cc(-c2[nH]c3sc(C(C)(C)C(=O)N4CCCC4)cc3c2[C@H](C)CNC(=O)N2CCC(c3ccccc3)C2)c1 (stereo partly drawn)
- solubility [2]: 56 µM (≈ 33.4 µg/mL)

SMILES: COC1CCN(C(=O)C2CCN(CCc3c(-c4cc(C)cc(C)c4)[nH]c4sc(C(C)(C)C(=O)N5C6CCC5CC6)cc34)CC2)C1 (stereo not drawn)
- AUC [3]: 190 µM·h
- bioavailability [4]: 38%
- clearance [5]: 0.8 mL/min/kg

Now from value to compound, other results behind:

- solubility [2]: 2 µM (≈ 1.2 µg/mL)
SMILES: Cc1cc(C)cc(-c2[nH]c3sc(C(C)(C)C(=O)N4C5CCC4CC5)cc3c2CN2CCN(CC(=O)N3CCCC3)CC2)c1

- solubility [2]: 236 µM (≈ 163 µg/mL)
- IC50 (Cytochrome P450 3A4): 6 µM
SMILES: CC(=O)N1CCN(CC(O)CN2CCN(CCc3c(-c4cc(C)cc(C)c4)[nH]c4sc(C(C)(C)C(=O)N5C6CCC5CC6)cc34)CC2)CC1 (stereo not drawn)

- solubility [2]: 425 µM (≈ 275 µg/mL)
- IC50 (Cytochrome P450 3A4): > 10 µM
SMILES: Cc1cc(C)cc(-c2[nH]c3sc(C(C)(C)C(=O)N4C5CCC4CC5)cc3c2CCN2CCN(CC(O)CN3CCNCC3)CC2)c1 (stereo not drawn)

- bioavailability [4]: 4%
- clearance [5]: 153 mL/min/kg
SMILES: Cc1cc(C)cc(-c2[nH]c3sc(C(C)(C)C(=O)N4C5CCC4CC5)cc3c2CCN2CCN(CC(=O)N3CCOCC3)CC2)c1

- AUC [1]: 0.006 µM·h
SMILES: Cc1cc(C)cc(-c2[nH]c3sc(C(C)(C)C(=O)N4C5CCC4CC5)cc3c2CCN2CCC(N3CCOCC3)CC2)c1

- AUC [3]: 0.254 µM·h
SMILES: Cc1cc(C)cc(-c2[nH]c3sc(C(C)(C)C(=O)N4C5CCC4CC5)cc3c2CCN2CCC(C(=O)N3CCOCC3)C(C)C2)c1 (stereo not drawn)

- solubility [2]: 947 µM (≈ 596 µg/mL)
SMILES: Cc1cc(C)cc(-c2[nH]c3sc(C(C)(C)C(=O)N4C5CCC4CC5)cc3c2C(=O)CN2CCN(CC(=O)N3CCCC3)CC2)c1

- solubility [2]: 107 µM (≈ 72 µg/mL)
SMILES: CC(=O)NC1CCN(C(=O)CN2CCN(CCc3c(-c4cc(C)cc(C)c4)[nH]c4sc(C(C)(C)C(=O)N5C6CCC5CC6)cc34)CC2)C1 (stereo not drawn)

- solubility [2]: 104 µM (≈ 61.3 µg/mL)
SMILES: Cc1cc(C)cc(-c2[nH]c3sc(C(C)(C)C(=O)N4C5CCC4CC5)cc3c2CCN2CCN(CC(=O)N(C)C)CC2)c1

- AUC [1]: 0.018 µM·h
SMILES: Cc1cc(C)cc(-c2[nH]c3sc(C(C)(C)C(=O)N4C5CCC4CC5)cc3c2CCN2CCC(CNC(=O)N3CCOCC3)CC2)c1

- AUC [1]: 0.041 µM·h
SMILES: Cc1cc(C)cc(-c2[nH]c3sc(C(C)(C)C(=O)N4C5CCC4CC5)cc3c2CCN2CCC(CC(=O)N3CCOCC3)CC2)c1

- AUC [3]: 0.526 µM·h
SMILES: Cc1cc(C)cc(-c2[nH]c3sc(C(C)(C)C(=O)N4C5CCC4CC5)cc3c2CCN2CCC(OCC(=O)N3CCOCC3)CC2)c1

- AUC [3]: 27.1 µM·h
- clearance [5]: 4 mL/min/kg
SMILES: Cc1cc(C)cc(-c2[nH]c3sc(C(C)(C)C(=O)N4C5CCC4CC5)cc3c2CCN2CCC(C(=O)N3CCOCC3)CC2)c1
- Activity (Rattus norvegicus): Active

From ChEMBL document CHEMBL1140569, “Synthesis and structure-activity relationships of thieno[2,3-b]pyrroles as antagonists of the GnRH receptor” (Bioorg Med Chem Lett, 2007)
